Data from article PMC3495945, “Org 214007-0: A Novel Non-Steroidal Selective Glucocorticoid Receptor Modulator with Full Anti-Inflammatory Properties and Improved Therapeutic Index” (PLoS ONE, 2012).
Read-outs that look alike come from different tables or passages of the source. One block for each compound: values may come before it.

How the values were obtained:
[1] = system: THP-1 cells; assay: THP-1 repression of TNFα/IFNγ-induced MCP-1, IL-6, IL-8 release; format: cell-based, human; settings: for IC50: Homo sapiens, THP-1, TNFα (60 ng/ml)/IFNγ (40 ng/ml); for Max. eff., IL-6 repression / Max. eff., IL-8 repression / Max. eff., MCP-1 repression: THP-1, I/T, prednisolone = 100%
Protocol: After 6 hours total RNA was isolated and further processed for microarray hybridization as described for the HepG2 cells. The data from all microarray experiments have been deposited in the NCBI Gene Expression Omnibus (GEO) under accession number (identifier will be included in proof). […] Expression of FKBP51, MCP-1, IL-6 and IL-8 protein was measured by specific […]; #A[…] [MCP-1], #A[…] [IL-6] and #A[…] [IL-8]) according to the manufacturer manual. […] Expression of FKBP51, DUSP1 and GILZ was measured by Q-PCR according to the same procedure as described for the HepG2 cells. In this case the following primer-pairs were used: for GAPDH: [NT] and [NT]; for FKBP51: [NT] and [NT]; for DUSP1: [NT] and [NT]; for GILZ: [NT] and [NT]. For the evaluation of protein expression, cells were incubated overnight with a whole dose range of compounds. Supernatants were collected to determine cytokine levels and cell lysates were generated by repeated freeze-thaw cycles to measure expression of FKBP51 protein. Expression of FKBP51, MCP-1, IL-6 and IL-8 was measured by specific […]; #A[…] [MCP-1], #A[…] [IL-6] and #A[…] [IL-8]) according to the manufacturer manual. […] Samples were incubated for 60 min at 23 C. […] Plates were measured using an EnVision-Alpha Reader.

[2] = system: primary human whole blood cells; assay: Human whole blood PMA/anti-CD28-induced cytokine release; format: cell-based; settings: for IC50: read-out: IC50, PMA/anti-CD28-induced IL-5 release
Description: Hereafter, supernatant was carefully collected and tested at the most optimal dilution (predetermined by a titration study on control samples) in a human TNFα-specific ELISA (for the LPS stimulated samples) or in a human IL-5-specific or human G-CSF-specific ELISA (for the PMA/anti-CD28 stimulated samples) (Duoset, R&D systems USA).

[3] = Mouse fasting blood glucose; format: in vivo; settings: oral daily 28 days; prednisolone 0.5 or 10 mg/kg/day, Org 214007-0 0.17 or 1.5 mg/kg/day; 9 hours fasting
Protocol: Eighteen hours after the last oral treatment and 9 hours after start of starvation, blood samples were taken from the tail vein and directly used for glucose measurements using “One touch Ultra” glucose meter from Lifescan EuroFlash (Lifescan Benelux Beerse, Belgium). The mouse MIDA study was performed as described previously by van Dijk et al., [52]. […] On the third day, mice were cannulated in the right jugular vein. After 7 days of treatment, mice were placed in small Plexiglas cages, which allowed collection of blood samples frequently in freely moving mice. […] During the experiment blood glucose was measured and blood spots for GCMS measurements were collected from tail tips just before the start of the infusion and at hourly intervals. […] Glucose and paracetamol-glucuronic acid (Par-GLcUa) were extracted from blood spot and urine filter papers, respectively, derivatised, and measured by GC-MS, essentially as described previously, [52]. […] From isotope dilution and infusion rates, the flux rates of the following metabolic pathways could be calculated: 1) de novo synthesis of G6P, 2) glucokinase, 3) glucose-6-phosphatase, 4) glycogenolysis, and 5) glycogen synthesis. […]

[4] = Pharmacokinetics in mice; format: in vivo, mouse; settings: for half-life: read-out: T1/2 eli (converted); for C0: extrapolated to T=0, read-out: Cmax; for Tmax: female Balb/c mice
Protocol: For each time-point 3 female Balb/c mice are used. Tmax = Time of maximum observed concentration (in case of i.v. administration Tmax = 0 h); time is expressed in hours (h). Cmax = concentration corresponding to Tmax and expressed in nmol/ml, for i.v. dosing Cmax is extrapolated to T=0. T 1/2 eli(mination) (terminal half-life) = ln(2)/λz expressed in h(ours). AUClast = Area under the curve from the time of dosing (Dosing-time) to the last measurable concentration. AUCinf = predicted Area Under the Curve from the time of dosing extrapolated to infinity and expressed in “h*nmol/ml”. Vz = Volume of distribution based on the terminal phase = Dose / λz* AUCinf and expressed inL/kg. Cl = total body clearance = Dose / AUCinf and expressed in L/h/kg. MRTinf = mean residence time (MRT) extrapolated to infinity for non-infusion models, expressed in h. Vss = gives an estimate of the volume of distribution at steady-state and is expressed in L/kg. […] The bioavailability is expressed in %. i.v. = intraveneously, p.o. = per oral

[5] = human whole blood, P/28, prednisolone = 100%
[6] = female, Balb/c, mouse, in vivo, iv, 10 umol/kg, 10 μmol/kg i.v.
[7] = female, Balb/c, mouse, in vivo, po, 20 umol/kg, 20 μmol/kg p.o.
[8] = female, Balb/c, mouse, in vivo, iv, 4 umol/kg, 4 μmol/kg i.v.
[9] = female, Balb/c, mouse, in vivo, po, 10 umol/kg, 10 μmol/kg p.o.

SMILES: C[C@]12C=CC(=O)C=C1CC[C@@H]1[C@@H]2[C@@H](O)C[C@@]2(C)[C@H]1CC[C@]2(O)C(=O)CO [prednisolone, reference compound]
IC50 ([1]; read-out: IC50, IL-6 release): 34.1 nM
IC50 ([1]; read-out: IC50, IL-8 release): 36.9 nM
IC50 ([1]; read-out: IC50, MCP-1 release): 69.9 nM
Max. eff., IL-6 repression [1]: 100%
Max. eff., IL-8 repression [1]: 100%
Max. eff., MCP-1 repression [1]: 100%
IC50 ([2]; Homo sapiens, Whole blood cell, 24 h): 6.76 nM
Max. eff., IL-5 repression [2, 5]: 100%
fasting blood glucose levels vs vehicle [3]: significantly elevated
Cl ([4]; 20 μmol/kg p.o.): 1.8 L/h/kg
Vz ([4]; 20 μmol/kg p.o.): 1.2 L/kg
AUC(0-inf) [4, 6]: 7.1 µM·h
AUC(0-t) [4, 6]: 7.1 µM·h
MRT inf [4, 6]: 0.4 h
clearance [4, 6]: 23.3 mL/min/kg
half-life [4, 6]: 15.6 min
Vd ([4]; female, Balb/c, mouse, in vivo, iv, 10 umol/kg, 10 μmol/kg i.v., read-out: Vss): 0.5 L/kg
C0 ([4]; female, Balb/c, mouse, in vivo, iv, 10 μmol/kg i.v.): 18 µM
AUC(0-inf) [4, 7]: 11 µM·h
AUC(0-t) [4, 7]: 11 µM·h
Cmax [4, 7]: 11.5 µM
MRT inf [4, 7]: 0.8 h
half-life [4, 7]: 24 min
Tmax ([4]; mouse, in vivo, po, 20 umol/kg, 20 μmol/kg p.o.): 18 min

IC50 ([1]; read-out: IC50, IL-6 release): 9.3 nM
IC50 ([1]; read-out: IC50, IL-8 release): 11 nM
IC50 ([1]; read-out: IC50, MCP-1 release): 23.5 nM
EC50 ([2]; Whole blood cell, human whole blood, 24 hours, read-out: EC50, enhancement of PMA/anti-CD28-induced G-CSF release): 186 nM
IC50 ([2]; Whole blood cell, human whole blood, 24 hours): 14.4 nM
fasting blood glucose levels vs vehicle [3]: not affected
Cl ([4]; 10 μmol/kg p.o.): 0.4 L/h/kg
Vz ([4]; 10 μmol/kg p.o.): 3.2 L/kg
AUC(0-inf) [4, 8]: 10.8 µM·h
AUC(0-t) [4, 8]: 10.1 µM·h
MRT inf [4, 8]: 7.9 h
clearance [4, 8]: 6.67 mL/min/kg
half-life [4, 8]: 384 min
Vd ([4]; female, Balb/c, mouse, in vivo, iv, 4 umol/kg, 4 μmol/kg i.v., read-out: Vss): 2.9 L/kg
Vd ([4]; female, Balb/c, mouse, in vivo, iv, 4 umol/kg, 4 μmol/kg i.v., read-out: Vz): 3.4 L/kg
C0 ([4]; female, Balb/c, mouse, in vivo, iv, 4 μmol/kg i.v.): 2.19 µM
AUC(0-inf) [4, 9]: 24.2 µM·h
AUC(0-t) [4, 9]: 23.2 µM·h
Cmax [4, 9]: 2.12 µM
MRT inf [4, 9]: 7.1 h
bioavailability ([4]; female, Balb/c, mouse, in vivo, po, 10 umol/kg, 10 μmol/kg p.o., read-out: F (% bioavailability)): 89.7%
half-life [4, 9]: 318 min
Tmax ([4]; mouse, in vivo, po, 10 umol/kg, 10 μmol/kg p.o.): 30 min
SMILES: Cc1nnsc1C(=O)N[C@H]1CCN2c3ccc(C#N)cc3[C@@H](C)c3ccccc3[C@@H]2C1 [Org 214007-0]
Max. eff., IL-6 repression [1]: 78 (±9) %
Max. eff., IL-8 repression [1]: 74 (±10) %
Max. eff., MCP-1 repression [1]: 44 (±8) %
Max. eff., G-CSF induction [2, 5]: 39 (±7.8) %
Max. eff., IL-5 repression [2, 5]: 64 (±11) %
